Test results taken from ChEMBL document CHEMBL4219199, “Synthesis and evaluation of aminobenzothiazoles as blockers of N- and T-type calcium channels” (Bioorg Med Chem, 2018).

Columns and labels:
[1] = target: Voltage-dependent N-type calcium channel subunit alpha-1B (Homo sapiens, UniProt Q00975); assay: Inhibition of Cav2.2 in human SH-SY5Y cells assessed as decrease in KCl-induced calcium mobilization measured after 600 secs post compound addition and 300 secs post KCl addition in presence of CaV1 blocker nifedipine by calcium 4 dye-based FLIPR assay; assay type: cell-based
Sequence of Voltage-dependent N-type calcium channel subunit alpha-1B (Homo sapiens, UniProt Q00975) (Q00975 whole entry): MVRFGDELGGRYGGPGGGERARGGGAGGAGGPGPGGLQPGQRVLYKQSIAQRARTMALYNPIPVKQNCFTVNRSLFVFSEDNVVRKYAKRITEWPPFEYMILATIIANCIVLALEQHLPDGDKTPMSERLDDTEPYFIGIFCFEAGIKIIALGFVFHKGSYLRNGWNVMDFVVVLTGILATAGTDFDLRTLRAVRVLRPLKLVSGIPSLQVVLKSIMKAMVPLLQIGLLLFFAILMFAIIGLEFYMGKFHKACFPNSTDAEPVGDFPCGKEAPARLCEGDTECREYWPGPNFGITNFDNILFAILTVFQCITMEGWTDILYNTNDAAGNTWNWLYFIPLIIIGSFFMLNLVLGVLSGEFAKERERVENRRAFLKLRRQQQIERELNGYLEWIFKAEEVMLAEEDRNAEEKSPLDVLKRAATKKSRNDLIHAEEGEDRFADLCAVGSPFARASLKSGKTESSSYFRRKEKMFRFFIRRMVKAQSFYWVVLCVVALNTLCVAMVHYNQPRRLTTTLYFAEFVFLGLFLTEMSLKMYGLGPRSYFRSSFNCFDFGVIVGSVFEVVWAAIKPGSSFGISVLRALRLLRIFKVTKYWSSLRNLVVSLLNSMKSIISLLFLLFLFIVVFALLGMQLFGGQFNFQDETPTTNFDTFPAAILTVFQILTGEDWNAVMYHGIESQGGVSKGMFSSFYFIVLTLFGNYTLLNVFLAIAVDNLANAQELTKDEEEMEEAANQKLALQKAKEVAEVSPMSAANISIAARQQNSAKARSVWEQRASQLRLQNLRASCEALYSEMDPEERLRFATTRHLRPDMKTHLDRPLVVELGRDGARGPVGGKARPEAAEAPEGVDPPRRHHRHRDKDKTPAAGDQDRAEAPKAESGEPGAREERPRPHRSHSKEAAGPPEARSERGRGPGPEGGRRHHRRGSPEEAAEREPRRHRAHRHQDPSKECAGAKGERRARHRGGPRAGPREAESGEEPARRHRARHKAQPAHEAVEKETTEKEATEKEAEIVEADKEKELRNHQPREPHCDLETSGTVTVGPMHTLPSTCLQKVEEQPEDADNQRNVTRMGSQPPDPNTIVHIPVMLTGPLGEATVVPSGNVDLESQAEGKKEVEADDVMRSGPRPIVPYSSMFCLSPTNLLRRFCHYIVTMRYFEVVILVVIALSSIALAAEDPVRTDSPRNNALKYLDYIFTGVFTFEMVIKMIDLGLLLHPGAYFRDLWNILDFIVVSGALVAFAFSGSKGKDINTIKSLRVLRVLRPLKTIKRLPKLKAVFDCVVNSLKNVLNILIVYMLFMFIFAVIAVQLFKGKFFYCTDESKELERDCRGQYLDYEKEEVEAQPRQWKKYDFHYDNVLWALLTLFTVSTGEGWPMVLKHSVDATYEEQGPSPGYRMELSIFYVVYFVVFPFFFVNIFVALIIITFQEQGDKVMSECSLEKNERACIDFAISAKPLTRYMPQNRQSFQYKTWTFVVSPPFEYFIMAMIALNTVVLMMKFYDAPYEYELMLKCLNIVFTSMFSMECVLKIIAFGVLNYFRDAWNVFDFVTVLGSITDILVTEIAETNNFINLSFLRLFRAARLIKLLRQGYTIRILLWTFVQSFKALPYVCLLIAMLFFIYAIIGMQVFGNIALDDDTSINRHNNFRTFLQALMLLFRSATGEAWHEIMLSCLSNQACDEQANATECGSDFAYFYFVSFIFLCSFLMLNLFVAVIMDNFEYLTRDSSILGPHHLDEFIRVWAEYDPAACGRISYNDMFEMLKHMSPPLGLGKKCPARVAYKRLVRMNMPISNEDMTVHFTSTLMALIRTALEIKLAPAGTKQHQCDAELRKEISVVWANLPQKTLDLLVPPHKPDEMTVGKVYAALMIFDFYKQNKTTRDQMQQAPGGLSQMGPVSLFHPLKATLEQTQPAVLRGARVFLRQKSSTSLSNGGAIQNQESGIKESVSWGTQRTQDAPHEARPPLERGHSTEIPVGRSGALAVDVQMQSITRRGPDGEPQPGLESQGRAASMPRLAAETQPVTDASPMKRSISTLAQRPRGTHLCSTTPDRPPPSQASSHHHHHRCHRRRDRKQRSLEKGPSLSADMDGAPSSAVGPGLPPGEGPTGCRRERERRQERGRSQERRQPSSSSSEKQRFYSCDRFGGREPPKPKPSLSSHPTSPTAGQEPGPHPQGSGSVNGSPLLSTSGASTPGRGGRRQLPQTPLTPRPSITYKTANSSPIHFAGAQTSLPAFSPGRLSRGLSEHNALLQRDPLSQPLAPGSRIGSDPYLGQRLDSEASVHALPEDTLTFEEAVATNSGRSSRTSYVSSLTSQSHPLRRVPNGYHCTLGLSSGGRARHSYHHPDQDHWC

[2] = target: Voltage-dependent T-type calcium channel subunit alpha-1H (Homo sapiens, UniProt O95180); assay: Inhibition of recombinant human Cav3.2-alpha1 expressed in HEK293T cells assessed as decrease in KCl-induced calcium mobilization measured after 600 secs post compound addition and 300 secs post KCl addition by calcium 4 dye-based FLIPR assay; assay type: cell-based
Sequence of Voltage-dependent T-type calcium channel subunit alpha-1H (O95180 whole entry): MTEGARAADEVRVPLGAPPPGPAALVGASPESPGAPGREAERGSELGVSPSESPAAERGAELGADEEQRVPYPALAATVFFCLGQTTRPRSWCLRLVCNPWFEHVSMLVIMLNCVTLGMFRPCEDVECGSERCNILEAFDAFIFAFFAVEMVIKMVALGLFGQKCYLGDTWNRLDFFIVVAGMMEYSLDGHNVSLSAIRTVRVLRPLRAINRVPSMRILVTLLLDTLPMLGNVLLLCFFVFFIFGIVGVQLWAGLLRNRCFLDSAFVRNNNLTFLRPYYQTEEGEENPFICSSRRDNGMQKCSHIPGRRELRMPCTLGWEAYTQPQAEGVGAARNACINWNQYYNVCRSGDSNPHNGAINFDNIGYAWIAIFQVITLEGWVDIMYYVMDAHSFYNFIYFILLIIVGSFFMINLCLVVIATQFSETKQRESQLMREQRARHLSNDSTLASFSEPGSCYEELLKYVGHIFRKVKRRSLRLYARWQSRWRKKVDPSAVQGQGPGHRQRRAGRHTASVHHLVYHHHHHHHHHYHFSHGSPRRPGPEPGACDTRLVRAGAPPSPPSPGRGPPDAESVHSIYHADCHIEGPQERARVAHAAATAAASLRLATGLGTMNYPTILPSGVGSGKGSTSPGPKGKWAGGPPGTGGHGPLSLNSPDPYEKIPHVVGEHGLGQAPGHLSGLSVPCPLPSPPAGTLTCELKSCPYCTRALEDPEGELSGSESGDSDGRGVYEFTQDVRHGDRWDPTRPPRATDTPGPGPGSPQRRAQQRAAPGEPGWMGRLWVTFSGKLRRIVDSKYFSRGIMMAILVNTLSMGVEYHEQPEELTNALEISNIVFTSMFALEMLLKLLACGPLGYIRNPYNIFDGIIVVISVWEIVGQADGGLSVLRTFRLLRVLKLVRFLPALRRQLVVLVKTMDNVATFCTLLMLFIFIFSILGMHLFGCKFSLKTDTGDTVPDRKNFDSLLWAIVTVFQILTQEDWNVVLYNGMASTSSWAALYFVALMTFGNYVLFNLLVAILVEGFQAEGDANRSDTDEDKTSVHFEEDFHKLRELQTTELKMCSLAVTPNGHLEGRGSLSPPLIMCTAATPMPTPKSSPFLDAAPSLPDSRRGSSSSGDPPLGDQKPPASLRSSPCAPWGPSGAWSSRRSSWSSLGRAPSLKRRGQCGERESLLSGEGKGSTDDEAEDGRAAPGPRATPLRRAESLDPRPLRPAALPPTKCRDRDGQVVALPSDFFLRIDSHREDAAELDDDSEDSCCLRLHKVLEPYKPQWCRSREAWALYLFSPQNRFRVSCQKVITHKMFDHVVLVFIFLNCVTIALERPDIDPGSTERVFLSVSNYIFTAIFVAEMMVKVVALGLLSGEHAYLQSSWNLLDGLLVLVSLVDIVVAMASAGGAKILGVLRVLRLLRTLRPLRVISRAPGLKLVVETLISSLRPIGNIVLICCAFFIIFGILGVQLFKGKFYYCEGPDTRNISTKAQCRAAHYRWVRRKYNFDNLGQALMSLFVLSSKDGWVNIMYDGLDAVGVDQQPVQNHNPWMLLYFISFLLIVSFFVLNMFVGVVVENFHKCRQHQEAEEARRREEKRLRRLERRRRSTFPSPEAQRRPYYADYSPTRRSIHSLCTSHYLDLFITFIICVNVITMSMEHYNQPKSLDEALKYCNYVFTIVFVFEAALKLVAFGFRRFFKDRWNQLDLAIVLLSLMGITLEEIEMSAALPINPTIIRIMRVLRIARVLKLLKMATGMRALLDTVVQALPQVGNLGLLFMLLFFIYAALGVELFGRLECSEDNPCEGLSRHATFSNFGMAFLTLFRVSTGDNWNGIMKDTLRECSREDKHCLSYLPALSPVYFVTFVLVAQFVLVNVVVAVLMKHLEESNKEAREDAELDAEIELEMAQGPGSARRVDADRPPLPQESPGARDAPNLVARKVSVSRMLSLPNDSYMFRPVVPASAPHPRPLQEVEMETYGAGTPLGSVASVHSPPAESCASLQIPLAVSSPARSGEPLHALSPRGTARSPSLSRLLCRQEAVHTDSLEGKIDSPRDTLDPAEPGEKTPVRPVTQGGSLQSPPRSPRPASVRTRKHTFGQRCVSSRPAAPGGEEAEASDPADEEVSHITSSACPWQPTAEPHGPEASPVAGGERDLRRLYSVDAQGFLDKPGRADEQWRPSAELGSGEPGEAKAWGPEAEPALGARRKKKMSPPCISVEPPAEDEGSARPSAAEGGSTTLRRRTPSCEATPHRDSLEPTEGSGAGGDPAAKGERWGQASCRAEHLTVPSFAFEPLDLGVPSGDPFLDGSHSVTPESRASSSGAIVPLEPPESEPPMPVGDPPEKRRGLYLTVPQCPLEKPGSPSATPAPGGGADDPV

[3] = target: Voltage-dependent N-type calcium channel subunit alpha-1B (Rattus norvegicus, UniProt Q02294); assay: Displacement of [125I]GVIA from rat brain membrane Cav2.2 after 1 hr by gamma counting method
[4] = Metabolic stability in rat plasma assessed as parent compound remaining at 120 uM after 24 hrs by HPLC analysis relative to control; assay type: ADME, cell-free; conditions: read-out: Stability
[5] = Half life in rat plasma; assay type: ADME, cell-free

Structure (SMILES)	IC50 [1] [µM]	IC50 [2] [µM]	EC50 [3] [µM]	remaining at 24 h, 120 µM [4] [%]	half-life [5] [h]
N#Cc1ccc(Oc2ccc3nc(NCc4ccc(OCCCNC(=N)N)cc4)sc3c2)cc1	368	326			
CN(C)CCCOc1ccc(CNc2nc3ccc(Oc4cccc(C(F)(F)F)c4)cc3s2)cc1	51	110			
NCCCOc1ccc(CN(C(=O)c2ccccc2OCCCN)c2nc3ccc(Oc4ccc(O)cc4)cc3s2)cc1			5.4		
CN(C)CCCOc1ccc(CNc2nc3ccc(Oc4ccc(C#N)cc4)cc3s2)cc1	105	41			
CN(Cc1ccc(OCCCN)cc1)c1nc2ccc(Oc3ccc(C(F)(F)F)cc3)cc2s1	283	248			
CN(Cc1ccc(OCCCNC(=N)N)cc1)c1nc2ccc(Oc3ccc(F)cc3)cc2s1	100	521			
NCCCOc1ccc(CNc2nc3ccc(Oc4ccc(O)cc4)cc3s2)cc1	205	300			
CN(Cc1ccc(OCCCNC(=N)N)cc1)c1nc2ccc(Oc3ccccc3)cc2s1	113	498			
CN(C)CCCOc1ccc(CN(C)c2nc3ccc(Oc4ccc(C#N)cc4)cc3s2)cc1	69	64			
NCCCOc1ccc(CNc2nc3ccc(Oc4ccc(F)cc4)cc3s2)cc1.O=C(O)C(F)(F)F	106	688		75	> 24
N=C(N)NCCCOc1ccc(CNc2nc3ccc(Oc4ccc(C(F)(F)F)cc4)cc3s2)cc1.O=C(O)C(F)(F)F	167	195		91	> 24
CN(Cc1ccc(OCCCN)cc1)c1nc2ccc(Oc3ccccc3)cc2s1	49	95			
CN(Cc1ccc(OCCCN)cc1)c1nc2ccc(Oc3ccc(O)cc3)cc2s1	117	165			
CN(Cc1ccc(OCCCNC(=N)N)cc1)c1nc2ccc(Oc3ccc(O)cc3)cc2s1	432	332			
CN(Cc1ccc(OCCCNC(=N)N)cc1)c1nc2ccc(Oc3ccc(C(F)(F)F)cc3)cc2s1	185	212			
CN(Cc1ccc(OCCCN)cc1)c1nc2ccc(Oc3cccc(C(F)(F)F)c3)cc2s1.O=C(O)C(F)(F)F	77	239		100	> 24
CN(C)CCCOc1ccc(CN(C)c2nc3ccc(Oc4ccc(C(F)(F)F)cc4)cc3s2)cc1	46	54			

Structure (SMILES)	IC50 [1] [µM]	IC50 [2] [µM]	EC50 [3] [µM]	remaining at 24 h, 120 µM [4] [%]	half-life [5] [h]
N#Cc1ccc(Oc2ccc3nc(NCc4ccc(OCCCN)cc4)sc3c2)cc1	41	109			
N=C(N)NCCCOc1ccc(CNc2nc3ccc(Oc4cccc(C(F)(F)F)c4)cc3s2)cc1	130	270			
CN(Cc1ccc(OCCCNC(=N)N)cc1)c1nc2ccc(Oc3cccc(C(F)(F)F)c3)cc2s1.O=C(O)C(F)(F)F	202	771		95	> 24
NCCCOc1ccc(CNc2nc3ccc(Oc4cccc(C(F)(F)F)c4)cc3s2)cc1	144	171			
NCCCOc1ccc(CNc2nc3ccc(Oc4ccc(C(F)(F)F)cc4)cc3s2)cc1	59	112			
CN(Cc1ccc(OCCCNC(=N)N)cc1)c1nc2ccc(Oc3ccc(C#N)cc3)cc2s1	143	153			
N=C(N)NCCCOc1ccc(CNc2nc3ccc(Oc4ccc(F)cc4)cc3s2)cc1	244	288			
N=C(N)NCCCOc1ccc(CNc2nc3ccc(Oc4ccc(O)cc4)cc3s2)cc1	253	319			
CN(C)CCCOc1ccc(CNc2nc3ccc(Oc4ccc(F)cc4)cc3s2)cc1	40	> 1000			
NCCCOc1ccccc1C(=O)N(Cc1ccc(OCCCN=C(N)N)cc1)c1nc2ccc(Oc3ccc(O)cc3)cc2s1			5.7		
CC(C)[C@H]1c2ccc(F)cc2CC[C@@]1(CCN(C)CCCc1nc2ccccc2[nH]1)OC(=O)C1CC1	7				
NC(N)=NCCCOc1ccc(CNc2nc3ccc(Oc4ccccc4)cc3s2)cc1	103	166			
O=C(CC(c1ccccc1)c1ccccc1)N1CCN(C(c2ccccc2)c2ccccc2)CC1 [Z160]	39	45			
NCCCOc1ccc(CNc2nc3ccc(Oc4ccccc4)cc3s2)cc1	218	> 1000			
CN(Cc1ccc(OCCCN)cc1)c1nc2ccc(Oc3ccc(C#N)cc3)cc2s1	65	328			
CN(Cc1ccc(OCCCN)cc1)c1nc2ccc(Oc3ccc(F)cc3)cc2s1	98	492			
